In ChEMBL document CHEMBL5584201, “Amphiphilic tribasic galactosamines potentiate rifampicin in Gram-negative bacteria at low Mg++/Ca++concentrations” (Bioorg Med Chem Lett, 2024):

How the values were obtained:
Format in all cases: functional
Escherichia coli [1] = experiment: Potentiation of rifampicin-induced antibacterial activity against Escherichia coli […] assessed as fold change in rifampicin MIC at 2 to 8 microg/ml in high concentration of Ca++ and Mg++ containing media by Mueller-Hinton broth based assay; details: dose 2-8 µg/ml
Acinetobacter baumannii [2] = experiment: Potentiation of rifampicin-induced antibacterial activity against Acinetobacter baumannii ATCC 17978 assessed as fold change in rifampicin MIC at 16 microg/ml in high concentration of Ca++ and Mg++ containing media by Mueller-Hinton broth based assay; details: dose 16 µg/ml
Escherichia coli [3] = experiment: Potentiation of rifampicin-induced antibacterial activity against Escherichia coli clinical isolate 94474 assessed as fold change in rifampicin MIC at 1/4 MIC in low salt containing media by Mueller-Hinton broth based assay
Escherichia coli [4] = experiment: Potentiation of rifampicin-induced antibacterial activity against Escherichia coli ATCC 25922 assessed as fold change in rifampicin MIC in low salt containing media by Mueller-Hinton broth based assay
Acinetobacter baumannii [5] = experiment: Potentiation of rifampicin-induced antibacterial activity against Acinetobacter baumannii ATCC 17978 assessed as fold change in rifampicin MIC in low salt containing media by Mueller-Hinton broth based assay
Acinetobacter baumannii [6] = experiment: Potentiation of rifampicin-induced antibacterial activity against Acinetobacter baumannii ATCC 17978 assessed as rifampicin MIC at 2 to 8 microg/ml in high concentration of Ca++ and Mg++ containing media by Mueller-Hinton broth based assay; details: dose 2-8 µg/ml
Pseudomonas aeruginosa [7] = experiment: Potentiation of rifampicin-induced antibacterial activity against Pseudomonas aeruginosa PA262 assessed as fold change in rifampicin MIC at 2 to 8 microg/ml in high concentration of Ca++ and Mg++ containing media by Mueller-Hinton broth based assay; details: dose 2-8 µg/ml
Acinetobacter baumannii [8] = experiment: Potentiation of rifampicin-induced antibacterial activity against multidrug resistant Acinetobacter baumannii AB031 assessed as fold change in rifampicin MIC at 1/4 MIC in low salt containing media by Mueller-Hinton broth based assay
Pseudomonas aeruginosa [9] = experiment: Antibacterial activity against Pseudomonas aeruginosa PAO1 in high concentration of Ca++ and Mg++ containing media by Mueller-Hinton broth based assay
Acinetobacter baumannii [10] = experiment: Potentiation of rifampicin-induced antibacterial activity against multidrug resistant Acinetobacter baumannii AB027 assessed as fold change in rifampicin MIC at 1/4 MIC in low salt containing media by Mueller-Hinton broth based assay
Pseudomonas aeruginosa [11] = experiment: Potentiation of rifampicin-induced antibacterial activity against Pseudomonas aeruginosa PAO1 assessed as fold change in rifampicin MIC at 2 to 8 microg/ml in high concentration of Ca++ and Mg++ containing media by Mueller-Hinton broth based assay; details: dose 2-8 µg/ml
Pseudomonas aeruginosa [12] = experiment: Potentiation of rifampicin-induced antibacterial activity against Pseudomonas aeruginosa PAO1 assessed as rifampicin MIC at 2 to 8 microg/ml in high concentration of Ca++ and Mg++ containing media by Mueller-Hinton broth based assay; details: dose 2-8 µg/ml

CCCCCCCCO[C@@H]1O[C@H](CN)[C@H](N)[C@H](OCc2ccc3ccccc3c2)[C@H]1N was tested, and the “fold change (FC)” value (Escherichia coli [1]) was 1, the “fold change (FC)” value (Acinetobacter baumannii [2]) was 1 and the “fold change (FC)” value (Escherichia coli [3]) was 64. The “fold change (FC)” value (Escherichia coli [4]) was 128, the “fold change (FC)” value (Acinetobacter baumannii [5]) was 256 and the MIC (Acinetobacter baumannii [6]) was 4 µg/mL. The “fold change (FC)” value (Pseudomonas aeruginosa [7]) was 1, the “fold change (FC)” value (Acinetobacter baumannii [8]) was 64 and the MIC (Pseudomonas aeruginosa [9]) was over 128 µg/mL. The “fold change (FC)” value (Acinetobacter baumannii [10]) was 64, the “fold change (FC)” value (Pseudomonas aeruginosa [11]) was 1 and the MIC (Pseudomonas aeruginosa [12]) was 8 µg/mL.
